The assay has as its system PDC KRAS tumor spheroids with HUVEC/MSC, viability. As to the kind of experiment: Anticancer human tumor 349418-098-R-PDC patient-derived lung adenocarcinoma cell line growth inhibition [KRAS2]. As to conditions: for viability, T/C: stronger effect = lower value. An excerpt: Multicellular complex tumor spheroid response to RAS pathway inhibitors in combination with a targeted agents in patient-derived cell lines with oncogenic KRAS variants from multiple cancer types
A high-throughput screen of multi-cell type tumor spheroids was designed to identify active combinations of targeted small molecules and KRAS pathway inhibitors. Complex spheroids include a stromal component modeled by human endothelial cells (HUVEC) and fibroblasts modeled by human mesenchymal stem cells (MSCs). The concentration ranges selected for each drug and investigational agent were based upon clinically achievable concentrations if the clinical Cmax of the agent was known.
Compounds. The drugs and investigational agents: BI-3406 (NSC825286), BAY-293 (NSC824723), batoprotafib (TNO155; NSC825523), sotorasib (AMG 510; NSC818433), MRTX1257 (NSC819558), elimusertib (BAY 1895344; NSC800525), molibresib (GSK525762; NSC774829), temuterkib (LY3214996; NSC803410), venetoclax (NSC766270), alisertib (NSC759677), olaparib (NSC753686), talazoparib (NSC767125), erdafitinib (NSC781556), ipatasertib (NSC767898), cabozantinib (NSC761068), nintedanib (NSC756659), abemaciclib (NSC768073), docetaxel (NSC628503), trametinib (NSC758246), and sapanisertib (NSC764658) were obtained from the National Cancer Institute (NCI) Developmental Therapeutics Program Chemical Repository. The FDA-approved anticancer drug set is available from the Developmental Therapeutics Program. […] The stock solutions were prepared in dimethyl sulfoxide (DMSO, Sigma-Aldrich, St. Louis, MO, cat. D2650) at 800-fold the tested concentration and stored at -70 degrees C prior to their use. All drugs and investigational agents were tested over a range starting from a high concentration at or near the clinical Cmax and decreasing in half-log increments. If the clinical Cmax for an agent had not been determined, the highest concentration tested was 10 microM.
Cell Culture. All cells were maintained in an incubator at 37 degrees C and 5% CO2 with 95% humidity. The PDC lines were cultured according to standard operating procedures established by the NCI PDMR (https://pdmr.cancer.gov/sops/default.htm). Briefly, all PDCs were thawed and cultured in Matrigel-coated flasks prepared with a working solution of 1X Ham's F-12 nutrient mix, without supplementation (Invitrogen, Waltham, MA, cat. 11765054), 100 U/mL penicillin-streptomycin (Invitrogen, cat. 15140122), and 2.5% Matrigel (Corning Inc., Corning, NY, cat. 354248) for the first three passages. All PDCs were cultured in complete DMEM/F-12 media containing advanced DMEM/F-12 (Invitrogen, cat. 12634028), 4.9% defined fetal bovine serum, heat inactivated (HyClone Laboratories Inc., Logan, UT, cat. SH30070.03HI), 389 ng/mL hydrocortisone (Sigma-Aldrich, cat. H4001), 9.7 ng/mL human EGF recombinant protein (Invitrogen, cat. PHG0313), 23.4 microg/mL adenine (Sigma-Aldrich, cat. A2786), 97.3 U/mL penicillin-streptomycin (Invitrogen, cat. 15140122), 1.9 mM L-glutamine (Invitrogen, cat. 25030081), and 9.7 microM Y-27632 dihydrochloride (Tocris Bioscience, Bristol, United Kingdom, cat. 1254). The PDCs were cultured in complete DMEM/F12 media without 9.7 microM Y-27632 dihydrochloride for at least two passages prior to the screen. The established cell line HOP-62 was cultured in RPMI 1640 medium, HEPES (Invitrogen, cat. 22400105) with 10% defined fetal bovine serum (HyClone Laboratories Inc., cat. SH30070.03) and 2 mM L-glutamine (Invitrogen, cat. 25030081). The pooled donor HUVEC were cultured in endothelial cell growth medium 2 (PromoCell, Heidelberg, Germany, cat. C-22011) and the hMSC were cultured in mesenchymal stem cell growth medium 2 (PromoCell, cat. C-28009). For all experiments, HUVEC and hMSC were used at passages </=5, while the malignant cell lines were used at passages </=15. […]

[1] abbreviates: curve of first compound, second compound 0.1 µM.
Setting [2] is: curve of first compound, second compound 0.316 µM.
[3] abbreviates: curve of first compound, second compound 1 µM.
Setting [4] is: curve of first compound, second compound 3.16 µM.
Where [5] appears, read: second compound 0.1 µM, first compound 0.0316 µM.
The mark [6] stands for this setting: second compound 0.316 µM, first compound 0.0316 µM.
[7] abbreviates: second compound 1 µM, first compound 0.0316 µM.
[8] abbreviates: second compound 3.16 µM, first compound 0.0316 µM.

Structures are written as SMILES.
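Note: spheroids exposed to compounds for seven days before readout.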

Broadly, the IC50 is the concentration needed to halve the response being measured. What is called viability, T/C is the ratio of treated to control. In the case of `CC(=O)Nc1cccc(-n2c(=O)n(C3CC3)c(=O)c3c(Nc4ccc(I)cc4F)n(C)c(=O)c(C)c32)c1` + C=CC(=O)N1CCN(c2nc(OCC3CCCN3C)nc3c2CCN(c2cccc4cccc(C)c24)C3)CC1CC#N, the IC50 is below 0.1 nM (curve of first compound, second compound 0.0316 µM); below 0.1 nM under setting [1]; below 0.1 nM under setting [2]; below 0.1 nM under setting [3]; below 0.1 nM under setting [4]. In addition, the viability, T/C by setting is: (second compound 0.0316 µM, first compound 0.0001 µM) 41.1%; (second compound 0.0316 µM, first compound 0.000316 µM) 20.2%; (second compound 0.0316 µM, first compound 0.001 µM) 14.8%; (second compound 0.0316 µM, first compound 0.00316 µM) 12.2%; (second compound 0.0316 µM, first compound 0.01 µM) 8.59%; (second compound 0.0316 µM, first compound 0.0316 µM) 6.57%. Further, the viability, T/C by setting is: (second compound 0.1 µM, first compound 0.0001 µM) 34.7%; (second compound 0.1 µM, first compound 0.000316 µM) 20.9%; (second compound 0.1 µM, first compound 0.001 µM) 16.1%; (second compound 0.1 µM, first compound 0.00316 µM) 10.9%; (second compound 0.1 µM, first compound 0.01 µM) 9.4%; under setting [5], 6.86%. For the same compound, the viability, T/C reads like this: (second compound 0.316 µM, first compound 0.0001 µM) 35.8%; (second compound 0.316 µM, first compound 0.000316 µM) 21.8%; (second compound 0.316 µM, first compound 0.001 µM) 16.8%; (second compound 0.316 µM, first compound 0.00316 µM) 12.6%; (second compound 0.316 µM, first compound 0.01 µM) 8.68%; under setting [6], 6.94%. The viability, T/C runs as follows: (second compound 1 µM, first compound 0.0001 µM) 30.4%; (second compound 1 µM, first compound 0.000316 µM) 23.3%; (second compound 1 µM, first compound 0.001 µM) 13.3%; (second compound 1 µM, first compound 0.00316 µM) 9.39%; (second compound 1 µM, first compound 0.01 µM) 7.58%; under setting [7], 6.58%. The viability, T/C is, setting by setting: (second compound 3.16 µM, first compound 0.0001 µM) 0.51%; (second compound 3.16 µM, first compound 0.000316 µM) 0.21%; (second compound 3.16 µM, first compound 0.001 µM) 0.19%; (second compound 3.16 µM, first compound 0.00316 µM) 0.46%; (second compound 3.16 µM, first compound 0.01 µM) 0.21%; under setting [8], 0.34%.
Regarding `Cn1nccc1Nc1nccc(-c2cc3c(s2)C(C)(C)N(CCN2CCOCC2)C3=O)n1` + C=CC(=O)N1CCN(c2nc(=O)n(-c3c(C)ccnc3C(C)C)c3nc(-c4c(O)cccc4F)c(F)cc23)C(C)C1, the half-maximal inhibitory concentration (IC50) was 85.5 nM under setting [1]; 64.3 nM under setting [2]; 67.6 nM under setting [3]; 37.4 nM under setting [4]; below 31.6 nM (curve of first compound, second compound 10 µM). Also, the viability, T/C reads like this: under setting [5], 75.7%; (second compound 0.1 µM, first compound 0.1 µM) 46.1%; (second compound 0.1 µM, first compound 0.316 µM) 23.6%; (second compound 0.1 µM, first compound 1 µM) 13.3%; (second compound 0.1 µM, first compound 3.16 µM) 10.8%; (second compound 0.1 µM, first compound 10 µM) 7.2%. In addition, the viability, T/C is 72.4% under setting [6]; 29.5% (second compound 0.316 µM, first compound 0.1 µM); 30.2% (second compound 0.316 µM, first compound 0.316 µM); 18.7% (second compound 0.316 µM, first compound 1 µM); 12.2% (second compound 0.316 µM, first compound 3.16 µM); 7.24% (second compound 0.316 µM, first compound 10 µM). The viability, T/C by setting is: under setting [7], 64.9%; (second compound 1 µM, first compound 0.1 µM) 39.1%; (second compound 1 µM, first compound 0.316 µM) 33.6%; (second compound 1 µM, first compound 1 µM) 18.3%; (second compound 1 µM, first compound 3.16 µM) 13.3%; (second compound 1 µM, first compound 10 µM) 9.7%. The viability, T/C runs as follows: under setting [8], 53%; (second compound 3.16 µM, first compound 0.1 µM) 34.9%; (second compound 3.16 µM, first compound 0.316 µM) 25.7%; (second compound 3.16 µM, first compound 1 µM) 16.5%; (second compound 3.16 µM, first compound 3.16 µM) 9.89%; (second compound 3.16 µM, first compound 10 µM) 8.92%. For the same compound, the viability, T/C runs as follows: (second compound 10 µM, first compound 0.0316 µM) 32.6%; (second compound 10 µM, first compound 0.1 µM) 19.6%; (second compound 10 µM, first compound 0.316 µM) 16.1%; (second compound 10 µM, first compound 1 µM) 13.9%; (second compound 10 µM, first compound 3.16 µM) 9.06%; (second compound 10 µM, first compound 10 µM) 6.64%.
In the case of `CC(C)n1nc(-c2ccc3oc(N)nc3c2)c2c(N)ncnc21`, the viability, T/C is 87.2% [middle of 5 runs] (compound 0.000316 µM); 47.6% [middle of 5 runs] (compound 0.001 µM); 17.1% [middle of 5 runs] (compound 0.00316 µM); 10.7% [middle of 5 runs] (compound 0.01 µM); 9.1% [middle of 5 runs] (compound 0.0316 µM); 8.83% [middle of 5 runs] (compound 0.1 µM). Moreover, the IC50 (curve of compound) is 0.92 nM [middle of 5 runs].
As for `Cn1nccc1Nc1nccc(-c2cc3c(s2)C(C)(C)N(CCN2CCOCC2)C3=O)n1`, the viability, T/C (compound 0.0316 µM) was 56.4% [middle of 5 runs]; the viability, T/C (compound 0.1 µM) is 40.2% [middle of 5 runs]; the viability, T/C (compound 0.316 µM) is 21.2% [middle of 5 runs]; the viability, T/C (compound 1 µM) was 14.3% [middle of 5 runs]; the viability, T/C (compound 3.16 µM) was 7.8% [middle of 5 runs]; the viability, T/C (compound 10 µM) is 5.9% [middle of 5 runs]. In addition, where the note is “curve of compound”, the concentration for half-maximal inhibition (IC50) is 52.2 nM [middle of 5 runs].
